Source: patent US20250388620A1, “EFFICIENT METHOD FOR MAKING HIGHLY PURIFIED 5’- CAPPED OLIGONUCLEOTIDES” (TriLink BioTechnologies, LLC, priority 2022, published 2025)

How the values were obtained:
HEK293 cells = test: mWasabi fluorescence assay (protein expression of capped mRNA) in HEK293 cells; format: cell-based; conditions: mWasabi encoding mRNA capped with the cap analog, 24 hours post transfection, 12.5 ng mRNA per well
Method: (§1) Wasabi and FLuc mRNAs capped with cap analog ARCA, cap analog A-1, cap analog A-2, cap analog 3′OMe, or cap analog A-Control (see Table 2) were prepared as described in International Patent Publication Nos. WO2017053297 and WO2023147352 which are incorporated herein by reference in their entirety.
(§2) The IVT template was used to prepare mWasabi encoding mRNA (970 nucleotides) with cap analogs A-control, 3′OMe, A-1 or A-2 by in-vitro transcription. The mRNAs were purified prior to use in assays described below. Protein expression was measured by Allele Biotechnology in cell-based assays.
(§3) mWasabi Fluorescence Assay:
(§4) The day before transfection: cells were seeded as follows: • HEK293 cells: 6.25×10^4/cm^2 • HeLa cells: 3.125×10^4/cm^2 • The cells were dissociated with TrypLE • HEK293 cells were seeded in 96 well plates coated with Poly-D-Lysine (50 μL at 100 μg/mL per well). • HeLa cells were seeded in 96 well plates (no coating required). • The cells were seeded in 100 μL of growth media (Growth Media: DMEM+10% FBS supplemented with GlutaMAX and MEM Non-Essential Amino Acids).
(§5) The day of transfection: Opti-MEM and MessengerMax Transfection Reagent were allowed to reach room temperature. Two tubes were set up for each mRNA (i.e., for each cap analog). […]
(§6) mWasabi fluorescent expression was quantified using Cytation 10 after 24 hours.

HeLa cells = test: mWasabi fluorescence assay (protein expression of capped mRNA) in HeLa cells; format: cell-based; conditions: mWasabi encoding mRNA capped with the cap analog, 24 hours post transfection, 12.5 ng mRNA per well
Method: as §1, §2, §3, §4, §5, §6

Row | Substance | fluorescence intensity (i.e., protein expression levels) (HEK293 cells) | fluorescence intensity (i.e., protein expression levels) (HeLa cells)
1 | ^m7, N2-butylG3′OMeppp^m6A2′OMepG [Compound A-2] | comparable to that of mRNA capped with Cap 3′OMe or mRNA capped with A-control, and much higher than that of mRNA capped with ARCA cap | comparable to that of mRNA capped with Cap 3′OMe or mRNA capped with A-control, and much higher than that of mRNA capped with ARCA cap
2 | ^N7-(4-chlorobenzyl)G3′OMeppp^m6A2′OMepG [Compound A-1] | comparable to that of mRNA capped with Cap 3′OMe or mRNA capped with A-control, and much higher than that of mRNA capped with ARCA cap | comparable to that of mRNA capped with Cap 3′OMe or mRNA capped with A-control, and much higher than that of mRNA capped with ARCA cap
